Results: patent publication US20240139349A1, “GADOLINIUM CHELATE, PREPARATION METHOD THEREFOR, AND APPLICATION THEREOF” (SUZHOU ZHECI PHARMACEUTICAL TECHNOLOGY CO., LTD., priority 2021, published 2024)
Where two headings read alike, the source gives them in different places.

Assay: In vitro MRI determination of longitudinal and transverse relaxation rates (r1, r2) of aqueous solutions
Assay type: physicochemical
Settings: for r1 (longitudinal relaxation rate) / r2 (transverse relaxation rate): aqueous solutions
[1] = H0 3.0 T clinical MRI system (Philips, Ingenia)
[2] = H0 7.0 T small animal MRI system

O=C([O-])CN1CCN(CC(=O)[O-])CCN([C@H](CO)[C@H](O)CO)CCN(CC(=O)[O-])CC1.[Gd+3] (racemic) [Gadavist, Gd-BT-DO3A]
r2/r1 (H0 3.0 T): 1.07 ± 0.03
r1 (longitudinal relaxation rate) [1]: 4600 ± 90 M⁻¹ s⁻¹
r2 (transverse relaxation rate) [1]: 4900 ± 40 M⁻¹ s⁻¹
r1 (longitudinal relaxation rate) [2]: 3770 M⁻¹ s⁻¹

O=[N+]([O-])[O-].O=[N+]([O-])[O-].O=[N+]([O-])[O-].[Gd+3] [Gd(NO3)3, gadolinium nitrate]
r2/r1: 1.06 ± 0.006
r1 (longitudinal relaxation rate) [1]: 11390 ± 250 M⁻¹ s⁻¹
r2 (transverse relaxation rate) [1]: 12040 ± 310 M⁻¹ s⁻¹
r1 (longitudinal relaxation rate) [2]: 8920 M⁻¹ s⁻¹

O=C([O-])CN(CCN(CC(=O)[O-])CC(=O)O)CCN(CC(=O)[O-])CC(=O)O.[Gd+3] [Magnevist, Gd-DTPA]
r2/r1 (H0 3.0 T): 1.03 ± 0.03
r1 (longitudinal relaxation rate) [1]: 4880 ± 120 M⁻¹ s⁻¹
r2 (transverse relaxation rate) [1]: 5000 ± 100 M⁻¹ s⁻¹
r1 (longitudinal relaxation rate) [2]: 3680 M⁻¹ s⁻¹

Gd-BSA: gadolinium chelate of bovine serum albumin
r2/r1 (H0 3.0 T): 1.72±0.02
r1 (longitudinal relaxation rate) [1]: 34880 ± 1060 M⁻¹ s⁻¹
r2 (transverse relaxation rate) [1]: 59920 ± 1570 M⁻¹ s⁻¹
